Assay results published in ChEMBL document CHEMBL1150508, “Benzopyran potassium channel activators related to cromakalim - amide replacements at position 4” (1993).

What was measured:
Format in all cases: functional, Artery
Conditions in all cases: route oral
Rattus norvegicus [1] = assay: Maximum fall in systolic blood pressure at interval of 1 hour over a period of 1-6 hour after dose of 1.0 mg/kg (p.o.) in spontaneous hypertensive rat (SHR); set-up: unit not given here
Rattus norvegicus [2] = assay: Maximum fall in systolic blood pressure at interval of 1 hour over a period of 1-6 hour after dose of 3.0 mg/kg (p.o.) in spontaneous hypertensive rat (SHR)
Rattus norvegicus [3] = assay: Maximum fall in systolic blood pressure at interval of 1 hour over a period of 1-6 hour after dose of 0.3 mg/kg (p.o.) in spontaneous hypertensive rat (SHR); set-up: unit not given here
Rattus norvegicus [4] = assay: Maximum fall in systolic blood pressure at interval of 1 hour over a period of 1-6 hour after dose of 0.1 mg/kg (p.o.) in spontaneous hypertensive rat (SHR)
Rattus norvegicus [5] = assay: Maximum fall in systolic blood pressure at interval of 1 hour over a period of 1-6 hour after dose of 10 mg/kg (p.o.) in spontaneous hypertensive rat (SHR)
Rattus norvegicus [6] = assay: Maximum fall in systolic blood pressure at interval of 1 hour over a period of 1-6 hour after dose 1.0 mg/kg (p.o.) in spontaneous hypertensive rat (SHR)

| Structure (SMILES) | Max fall in blood pressure (Rattus norvegicus [1]) | Max fall in blood pressure (Rattus norvegicus [3]) | also measured |
| --- | --- | --- | --- |
| C/N=C(/NC#N)NC1c2cnccc2OC(C)(C)[C@H]1O (stereo not given in full) | 25 |  |  |
| CN/C(=N/C1=CC(C)(C)Oc2ccc(C#N)cc21)NC#N | 17 |  | Max fall in blood pressure (Rattus norvegicus [2]): 15 |
| C/N=C(\NC1c2cc(C#N)ccc2OC(C)(C)[C@H]1O)NS(N)(=O)=O (stereo not given in full) |  |  | Max fall in blood pressure (Rattus norvegicus [2]): 14 |
| C/N=C(/NC#N)NC1c2cc(C#N)ccc2OC(C)(C)C1O (single isomer, unassigned) | 41 | 16 |  |
| CNC(=O)NC1c2cc(C#N)ccc2OC(C)(C)C1O (single isomer, unassigned) | 61 | 31 | Max fall in blood pressure (Rattus norvegicus [4]): 14 |
| C/N=C(/NC(C)=O)NC1c2cc(C#N)ccc2OC(C)(C)C1O (single isomer, unassigned) | 17 |  |  |
| CC1(C)Oc2ccc(C#N)cc2C(/N=C(/N)NC#N)C1O (single isomer, unassigned) | 48 | 24 |  |
| CN/C(=C\[N+](=O)[O-])NC1c2cc(C#N)ccc2OC(C)(C)C1O (single isomer, unassigned) | 7 |  | Max fall in blood pressure (Rattus norvegicus [5]): 12 |
| CC(C)(C)/N=C(/NC#N)NC1c2cc(C#N)ccc2OC(C)(C)C1O (single isomer, unassigned) |  |  | Max fall in blood pressure (Rattus norvegicus [6]): 8; Max fall in blood pressure (Rattus norvegicus [5]): 10 |
| C/N=C(/NC(N)=O)NC1c2cc(C#N)ccc2OC(C)(C)C1O (single isomer, unassigned) |  |  | Max fall in blood pressure (Rattus norvegicus [2]): 19 |
| CC1(C)Oc2ccc(C#N)cc2C(N2CCCC2=O)[C@H]1O (stereo not given in full) [CROMAKALIM] | 47 | 39 | Max fall in blood pressure (Rattus norvegicus [4]): 13 |
